The values below are quoted from earlier work in patent US20130085131A1, “HETEROCYCLIC COMPOUNDS AND THEIR USES” (Amgen Inc., priority 2010, published 2013).

Series [1] relates to mouse model of rheumatoid arthritis.
Series [2] concerns model of systemic lupus erythematosis. The conditions noted are these: in vivo.
Another series deals with T1, p110δ (Homo sapiens, UniProt O00329).
T1 sequence (O00329 1-1044): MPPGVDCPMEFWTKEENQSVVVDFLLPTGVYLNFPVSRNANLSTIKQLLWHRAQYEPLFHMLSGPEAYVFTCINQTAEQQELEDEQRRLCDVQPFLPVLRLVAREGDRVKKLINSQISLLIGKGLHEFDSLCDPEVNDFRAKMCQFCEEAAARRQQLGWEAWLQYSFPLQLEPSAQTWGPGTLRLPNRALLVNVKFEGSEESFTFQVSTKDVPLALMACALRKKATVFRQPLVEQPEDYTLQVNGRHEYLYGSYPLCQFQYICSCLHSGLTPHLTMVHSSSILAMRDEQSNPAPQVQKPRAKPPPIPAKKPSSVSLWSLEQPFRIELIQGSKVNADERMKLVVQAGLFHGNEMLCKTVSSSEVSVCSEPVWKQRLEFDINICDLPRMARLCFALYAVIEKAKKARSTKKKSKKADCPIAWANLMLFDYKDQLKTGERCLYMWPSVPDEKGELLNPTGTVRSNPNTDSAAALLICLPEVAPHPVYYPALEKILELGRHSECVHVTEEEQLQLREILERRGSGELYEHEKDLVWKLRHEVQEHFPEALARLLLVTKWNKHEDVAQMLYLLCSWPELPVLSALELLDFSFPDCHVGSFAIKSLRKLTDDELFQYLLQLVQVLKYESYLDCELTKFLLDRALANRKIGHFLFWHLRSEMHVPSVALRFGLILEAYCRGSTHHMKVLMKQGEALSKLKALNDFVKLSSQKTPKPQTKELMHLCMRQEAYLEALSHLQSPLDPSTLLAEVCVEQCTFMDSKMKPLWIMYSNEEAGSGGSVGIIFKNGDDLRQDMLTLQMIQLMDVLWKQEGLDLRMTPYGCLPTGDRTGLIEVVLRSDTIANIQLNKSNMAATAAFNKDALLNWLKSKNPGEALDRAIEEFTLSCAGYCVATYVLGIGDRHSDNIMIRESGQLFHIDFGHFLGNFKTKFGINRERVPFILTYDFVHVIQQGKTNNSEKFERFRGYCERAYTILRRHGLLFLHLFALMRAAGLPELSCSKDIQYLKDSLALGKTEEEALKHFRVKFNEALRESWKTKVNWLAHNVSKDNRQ

Series [3] concerns murine model of allergic disease. The conditions noted are these: absence of functional delta (IC 87114 and p110δ D910A mice).
In the next series the test system is murine model of asthma. The conditions noted are these: ovalbumin-induced airway inflammation.

As for `O=C1NC(=O)/C(=C\c2ccc3nccnc3c2)S1` [AS 605240], the “efficacy in a mouse model of rheumatoid arthritis” value in series [1] was “efficacious”. The “onset of disease in a model of systemic lupus erythematosis” value in series [2] is given as “delay onset of disease”.
As to `Cc1ccccc1-n1c(Cn2cnc3c(N)ncnc32)nc2cccc(C)c2c1=O` [IC87114], the “inhibition of p110δ” value at p110δ was “high nanomolar range (triple digit)”. The “activity against any protein kinases tested” value with protein kinases is “no activity”. Also, the “passive cutaneous anaphylaxis (PCA)” value in series [3] is “significantly reduced”. The “inflammation and disease in a murine model of asthma” value with murine model of asthma is listed as “significantly ameliorate”.
